Test [1] relates to patients having suffered a myocardial infarction. As to the kind of experiment: LAMP study (Outcome MACE): hazard ratio medication vs no medication, stratified by biomarker quintile. The test is classed as in vivo, human. From the text:
Suitable threshold levels for the stratification of subjects into different groups (categories) have to be determined for each particular combination of vasoactive hormone or fragments thereof or precursors or fragments thereof, medication and disease. This can e.g. be done by grouping a reference population of patients according to their level of vasoactive hormone into certain quantiles, e.g. tertiles, quartiles, quintiles or even according to suitable percentiles. […] A HR around 1 (e.g. +/−0.1) indicates no elevated risk but also no benefit from medication for the particular group of patients. By comparison of the HR between certain quantiles of patients with each other and with the HR of the overall population of patients, it is possible to identify those quantiles of patients who have an elevated risk and those who benefit from medication and thereby stratify subjects according to the present invention.
(§1) FIGS. 14 to 21 illustrate the survival rate for patients suffering from myocardial infarction from the “Leicester Acute Myocardial Infarction Peptide Study” (“LAMP”). FIGS. 22 to 34 illustrate the rate of major cardiac events for patients suffering from acute myocardial infarction from “LAMP-Study”.
The study involved 983 consecutive patients with acute myocardial infarction (AMI) admitted to the Coronary Care Unit of Leicester Royal Infirmary. […] Acute myocardial infarction was subcategorized into ST-segment elevation myocardial infarction (STEMI) or non-ST-segment myocardial infarction (NSTEMI).
Blood samples were drawn on 1 occasion 3 to 5 days after the onset of chest pain. After 15 min bed rest, 20 ml blood was collected into tubes containing ethylendiaminetetraacetic acid (EDTA) and aprotinin. All plasma samples were stored at −70° C. until assayed in a blinded fashion in a single batch. In a subgroup of 132 patients from the original 983-patient cohort, blood sampling was performed daily for 5 days from admission to discharge.
(§2) Survival rates, i.e. the proportion of patients surviving at a given time after entry into the studies, are plotted in the appended figures over time for different combinations of a particular vasoactive hormone with a particular medication. The patients have been stratified into quintiles according to their respective hormone levels. […] For some cases, two or more quintiles have been pooled were appropriate. Hazard ratios (HR) have been calculated for various combinations of particular vasoactive hormones with particular medications. HR have also been calculated for particular quintiles and/or pooled quintiles and compared to overall HR for each combination.

Test [2] has the same test system. Nature of the test: LAMP study (Outcome Death): hazard ratio medication vs no medication, stratified by biomarker quintile. The test is classed as in vivo, human. As to conditions: for HR Medicament in Marker-Quantile 1 / HR Medicament in Marker-Quantile 2-4 / HR Medicament in Marker-Quantile 5 / HR Medicament (overall patient group): LAMP, Outcome Death.
Text: (§3) Suitable threshold levels for the stratification of subjects into different groups (categories) have to be determined for each particular combination of vasoactive hormone or fragments thereof or precursors or fragments thereof, medication and disease. This can e.g. be done by grouping a reference population of patients according to their level of vasoactive hormone into certain quantiles, e.g. tertiles, quartiles, quintiles or even according to suitable percentiles. […] A HR around 1 (e.g. +/−0.1) indicates no elevated risk but also no benefit from medication for the particular group of patients.
as §1
Acute myocardial infarction was subcategorized into ST-segment elevation myocardial infarction (STEMI) or non-ST-segment myocardial infarction (NSTEMI).
Blood samples were drawn on 1 occasion 3 to 5 days after the onset of chest pain. After 15 min bed rest, 20 ml blood was collected into tubes containing ethylendiaminetetraacetic acid (EDTA) and aprotinin. All plasma samples were stored at −70° C. until assayed in a blinded fashion in a single batch.
as §2

In test [3] the test system is patients suffering from shortness of breath (SOB), acute coronary syndrome, acute heart failure (AHF), arrhythmia, asthma exacerbation, bronchitis, chest pain …. More on the design: species or system human. The following applies: in vivo.
Text: as §3, §2

The test system of test [4] is patients with chronic ischemic left ventricular dysfunction. As to conditions: patients exhibiting a higher pre-treatment plasma NT-proBNP and adrenomedullin (ADM); cited from earlier work.
Test [5] deals with patients with severe congestive heart failure in NYHA class IV. The following applies: mortality after 6 months; patients stratified by peptide concentrations below and above median; cited from earlier work.

Several values for one entry are separate records, joined by “and”; a condition that tells them apart may be missing. Equal values may be shown once.

For `O=[N+]([O-])O` [Nitrate], the “HR Medicament in Marker-Quantile 1” value in test [1] (CT-proAVP 0.3-3.6 pmol/L) stood at 2.8; in test [1] (CT-proET-1 4.6-56.6 pmol/L), 2.4; in test [1] (MR-proADM 0.09-0.53 nmol/L) it was 2.4; in test [1] (MR-proANP 4.9-65 pmol/L) it was 3.8; in test [1] (NT-proBNP 0.12-184 pg/mL), 2.4; in test [2] (CT-ET-1 3.7-65.4 pmol/L) it was 1. Also, the “HR Medicament in Marker-Quantile 1” value in test [2] (CT-proAVP 0.31-4.6 pmol/L) is 4.8; in test [2] (MR-proANP 14.5-59.6 pmol/L) it was >100; in test [2] (NT-proBNP 0.12-184 pg/mL), 1.9. Besides, the “HR Medicament in Marker-Quantile 2-4” value worked out at 1.2 in test [1] (CT-proAVP 3.6-18.7 pmol/L); 0.9 in test [1] (CT-proET-1 56.6-118 pmol/L); 0.9 in test [1] (MR-proADM 0.53-1.16 nmol/L); 1 in test [1] (MR-proANP 65-264 pmol/L); 0.8 in test [1] (NT-proBNP 184-2700 pg/mL); 1 in test [2] (CT-ET-1 65.4-136 pmol/L). Further, the “HR Medicament in Marker-Quantile 2-4” value in test [2] (CT-proAVP 4.6-42.1 pmol/L) is 0.7; in test [2] (MR-proANP 59.6-283 pmol/L), 0.9; in test [2] (NT-proBNP 184-2700 pg/mL) it was 0.6. For the same compound, the “HR Medicament in Marker-Quantile 5” value amounted to 0.6 in test [1] (CT-proAVP 18.7-441 pmol/L); 0.9 in test [1] (CT-proET-1 118-671 pmol/L); 1 in test [1] (MR-proADM 1.16-6.95 nmol/L); 0.8 in test [1] (MR-proANP 264-1630 pmol/L); 0.9 in test [1] (NT-proBNP 2700-34100 pg/mL); 0.3 in test [2] (CT-ET-1 136-468 pmol/L). The figures for the “HR Medicament in Marker-Quantile 5” value in test [2] (CT-proAVP 42.1-1040 pmol/L), in test [2] (MR-proANP 283-1650 pmol/L) and in test [2] (NT-proBNP 2700-34100 pg/mL) were 0.3, 0.3 and 0.5, respectively. Moreover, the “HR Medicament (overall patient group)” value in test [1] (biomarker CT-proAVP) is recorded as 1.1; in test [1] (biomarker CT-proET-1) it was 1.1; in test [1] (biomarker MR-proADM) it was 1.1; in test [1] (biomarker MR-proANP), 1.1; in test [1] (biomarker NT-proBNP), 1; in test [2] (biomarker CT-ET-1), 0.6. For the same compound, the figures for the “HR Medicament (overall patient group)” value in test [2] (biomarker CT-proAVP), in test [2] (biomarker MR-proANP) and in test [2] (biomarker NT-proBNP) were 0.5, 0.5 and 0.7, respectively. The deaths with medication was 23 in test [2] (FIG. 16A, marker CT-proAVP, overall population, n=494 with medication); 2 in test [2] (FIG. 16B, 1st CT-proAVP quintile (0.31-4.6 pmol/L), n=69 with medication); 11 in test [2] (FIG. 16C, 2nd to 4th CT-proAVP quintiles (4.6-42.1 pmol/L), n=318 with medication); 10 in test [2] (FIG. 16D, 5th CT-proAVP quintile (42.1-1040 pmol/L), n=107 with medication).

On to `CC(=O)CC(c1ccccc1)c1c(O)c2ccccc2oc1=O` (stereo not shown) [Warfarin], for which the “HR Medicament (overall patient group)” value in test [3] was 1.6 and 1 and 1.3 and 0.8.

For `COc1ccccc1OCCNCC(O)COc1cccc2[nH]c3ccccc3c12` (stereo not shown) [carvedilol], in test [4], the “effect on mortality and heart failure” value was “reduced mortality and heart failure”.

Consider `CCOC(=O)[C@H](CCc1ccccc1)N[C@@H](C)C(=O)N1CCC[C@H]1C(=O)O` [elanapril], for which the effect on mortality result in test [5] is “beneficial effect”.

Values taken from patent US9229013B2, “Vasoactive hormone-based stratification of patients suffering from diseases related to endothelial function/dysfunction” (B.R.A.H.M.S GMBH, priority 2009, dated 2016).
